Assays:
[1] = test system: MV-4-11 subcutaneous xenograft; experiment: MV-4-11 subcutaneous xenograft model; format: in vivo, NOD/scid mice; details: Azacitidine 3 mg/kg intraperitoneally twice per week for 3 weeks
Description: The subcutaneous cell line xenograft (CDX) models and systemic patient-derived xenograft (PDX) models of AML have been extensively described before. For the subcutaneous MV-4-11 CDX model, 5 × 10^6 MV-4-11 tumor cells harvested from exponential growth phase were mixed with Matrigel (1:1) and then inoculated into the right front flank region of 6- to 7-week-old female NOD/scid mice for tumor development. MV-4-11 tumor-bearing mice were randomized into 5 groups (N = 8) when their tumor volume reached approximately 100 mm^3 and received their designated treatments following randomization. Narazaciclib was administrated intraperitoneally at 100 mg/kg twice per week for 3 weeks, while Azacitidine was administrated intraperitoneally at 3 mg/kg twice per week for 3 weeks. For the subcutaneous Ba/F3-ETV6-CSF1R CDX model, 1 × 10^6 Ba/F3-ETV6-CSF1R tumor cells harvested from exponential growth phase were mixed with Matrigel (1:1) and then inoculated into the right front flank region of 6- to 8-week-old female NOD/scid mice for tumor development. Ba/F3-ETV6-CSF1R tumor-bearing mice were randomized into 5 groups (N = 6) when their tumor volume reached approximately 100 mm^3 and received their designated treatments following randomization. […] Tumor volume and body weight were measured at different time points and tumor growth inhibition (TGI) was used as index to determine the therapeutic efficacy.

[2] = test system: Ba/F3-CSF1R cell line; experiment: Ba/F3-CSF1R proliferation assay (CTG); format: cell-based, mouse; details: + 100 ng/ml CSF-1
Description: (§1) The recombinant Ba/F3 cell lines overexpressing human CSF1R, or human RBM6-CSF1R, or human ETV6-CSF1R were generated using a retrovirus vector (Kyinno Co., Ltd. Beijing). The recombinant Ba/F3 lines overexpressing human Kras G12C orEGFR-L718Q mutants, and different mutant variants of FLT3 were also similarly created as well. A standard proliferation assay via CTG readout was performed according to the vendor’s instructions (KYinno Biotechnology Co., Ltd. Beijing).

[3] = test system: Ba/F3-RBM6-CSF1R cell line; experiment: Ba/F3-RBM6-CSF1R proliferation assay (CTG); format: cell-based, mouse; details: not requiring CSF1
Description: as §1

[4] = test system: MV-4-11 subcutaneous xenograft; details: prior knowledge; cited from earlier work
[5] = test system: AM8096 AML-PDX; experiment: AM8096 systemic AML-PDX model; format: in vivo, NOD/scid mice; details: AM8096, quizartinib
Description: For systemic AML-PDX models, the model establishment and narazaciclib pharmacology experiment were performed essentially as described previously. Briefly, 2 × 10^6 AM7407 cells, or 2 × 10^6 AM7577 cells, or 2 × 10^6 AM5512 cells, or 1.65 × 10^6 AM8096 cells were inoculated intravenously into 4- to 5-week-old female NOD/scid mice for AML development. Engraftment was confirmed by the presence of circulating human CD45+ cells (anti-human CD45 antibody, Cat. 304038, Biolegend) in peripheral blood. Mice with successful engraftment of AML-PDX were randomized into different treatment groups (N = 6) and received their designated treatments. Narazaciclib was administrated orally or intraperitoneally at 10 mg/kg, or 30 mg/kg, or 100 mg/kg every day throughout the study, while Cytarabine was administrated intraperitoneally at 3 mg/kg every day. Following the initiation of designated treatments, leukemic burden was monitored by flow cytometry with anti-human CD45 antibody on the peripheral blood every week as well as on the peripheral blood, bone marrow cells and splenocytes of mice at sacrifice. Mice were sacrifice once the followings are observed: body weight loss over 20%, reduced motility and activity, labored breathing, ruffled coat, hunched back and severe dehydration.

## Nc1ncn([C@@H]2O[C@H](CO)[C@@H](O)[C@H]2O)c(=O)n1 [Azacitidine, reference compound]
[1]
  anti-AML effect (tumor growth): little anti-AML effect

## COc1ccc(COc2ccc(Cc3cnc(N)nc3N)cc2OC)cc1 [GW2580, reference compound]
[2]
  IC50: 59.5 nM
[3]
  IC50: 344 nM

## FC(F)(F)c1ccc(CNc2ccc(Cc3c[nH]c4ncc(Cl)cc34)cn2)cn1 [Pexidartinib, pexidartinib, reference compound]
[2]; Mus musculus
  IC50: ~3.88 nM
[3]; Mus musculus
  IC50: 147 nM

## CCc1nc(C(N)=O)c(Nc2ccc(N3CCC(N4CCN(C)CC4)CC3)c(OC)c2)nc1NC1CCOCC1 [gilteritinib]
[4]
  response of MV-4-11 to FLT3i: responded

## CC(C)(C)c1cc(NC(=O)Nc2ccc(-c3cn4c(n3)sc3cc(OCCN5CCOCC5)ccc34)cc2)no1 [quizartinib, reference compound]
[4]
  response of MV-4-11 to FLT3i: responded
[5]
  response of model: responded poorly

## CNC(=O)c1cc(Oc2ccc(NC(=O)Nc3ccc(Cl)c(C(F)(F)F)c3)cc2)ccn1 [sorafenib]
[4]
  response of MV-4-11 to FLT3i: responded
